Experiment [1] addresses Carbonic anhydrase 1 (Homo sapiens, UniProt P00915). Briefly: Inhibition of recombinant human carbonic anhydrase 1 preincubated with enzyme for 15 mins by phenol red dye based stopped flow CO2 hydration assay.
The target in experiment [2] is Carbonic anhydrase 2 (Homo sapiens, UniProt P00918). Briefly: Inhibition of recombinant human carbonic anhydrase 2 preincubated with enzyme for 15 mins by phenol red dye based stopped flow CO2 hydration assay.
Experiment [3] deals with Carbonic anhydrase 4 (Homo sapiens, UniProt P22748). Briefly: Inhibition of recombinant human carbonic anhydrase 4 preincubated with enzyme for 15 mins by phenol red dye based stopped flow CO2 hydration assay.
In experiment [4] the target is Carbonic anhydrase 7 (Homo sapiens, UniProt P43166). Briefly: Inhibition of recombinant human carbonic anhydrase 7 preincubated with enzyme for 15 mins by phenol red dye based stopped flow CO2 hydration assay.
For experiment [5], the target named is Carbonic anhydrase 9 (Homo sapiens, UniProt Q16790). Briefly: Inhibition of recombinant human carbonic anhydrase 9 preincubated with enzyme for 15 mins by phenol red dye based stopped flow CO2 hydration assay.

pKi: −log10 of the molar value.

The term pKi denotes the negative decadic logarithm of the Ki, by convention in mol/L.

Carbonic anhydrase 4, sequence (P22748 whole entry): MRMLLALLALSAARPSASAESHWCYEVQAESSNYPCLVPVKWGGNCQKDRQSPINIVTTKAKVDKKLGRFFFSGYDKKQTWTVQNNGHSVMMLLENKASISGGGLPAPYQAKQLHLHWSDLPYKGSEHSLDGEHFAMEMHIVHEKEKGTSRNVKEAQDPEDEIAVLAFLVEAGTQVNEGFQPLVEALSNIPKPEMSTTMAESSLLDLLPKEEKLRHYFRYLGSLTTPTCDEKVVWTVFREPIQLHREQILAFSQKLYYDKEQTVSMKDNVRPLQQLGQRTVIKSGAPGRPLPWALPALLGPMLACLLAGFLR
Carbonic anhydrase 1, sequence (P00915 whole entry): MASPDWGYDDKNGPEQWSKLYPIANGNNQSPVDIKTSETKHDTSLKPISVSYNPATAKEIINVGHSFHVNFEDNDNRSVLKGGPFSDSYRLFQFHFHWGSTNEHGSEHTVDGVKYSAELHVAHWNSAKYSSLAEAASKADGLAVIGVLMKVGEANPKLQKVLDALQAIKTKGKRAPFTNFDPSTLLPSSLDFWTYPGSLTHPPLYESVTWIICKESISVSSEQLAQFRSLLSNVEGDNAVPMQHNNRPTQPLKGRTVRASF
Carbonic anhydrase 7, sequence (P43166 whole entry): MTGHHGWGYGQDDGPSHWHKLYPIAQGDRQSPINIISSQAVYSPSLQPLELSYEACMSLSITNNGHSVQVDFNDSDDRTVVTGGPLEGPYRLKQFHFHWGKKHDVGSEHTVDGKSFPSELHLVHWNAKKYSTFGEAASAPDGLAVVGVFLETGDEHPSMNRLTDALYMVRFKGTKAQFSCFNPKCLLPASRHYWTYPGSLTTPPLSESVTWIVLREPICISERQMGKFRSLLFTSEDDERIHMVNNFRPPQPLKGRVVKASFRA

`O=C1c2ccccc2C(=O)C1(O)O`: the negative-log Ki (pKi) in experiment [1] is 5.27; in experiment [2] it was 4.64; in experiment [3], less than 4.00; in experiment [4] it was 7.13; in experiment [5] it was 5.63.
`O=C1c2cc(Br)cc(Br)c2C(=O)C1(O)O`: the pKi in experiment [3] was less than 4.00; in experiment [5] it was 5.55.
Take `Cc1ccc2c(c1)C(=O)C(O)(O)C2=O`: the pKi in experiment [3] is 4.07; in experiment [5] it was 4.77.
The corresponding values for `O=C1c2ccc([N+](=O)[O-])cc2C(=O)C1(O)O` are less than 4.00 and 4.53.
On the same counts, the results for `O=C1c2cccc(Br)c2C(=O)C1(O)O` are less than 4.00 and 4.21.
The corresponding values for `COc1ccc(CNC(=O)CCl)c2c1C(=O)C(O)(O)C2=O` are less than 4.00 and 5.08.
As for `O=C1c2cccc([N+](=O)[O-])c2C(=O)C1(O)O`, the negative-log Ki (pKi) in experiment [3] is less than 4.00; in experiment [5], 4.51.
On the same counts, the results for `COc1cc2c(cc1OC)C(=O)C(O)(O)C2=O` are less than 4.00 and 4.52.
In the case of `O=C1c2ccc(Br)cc2C(=O)C1(O)O`, the pKi in experiment [3] is 4.15; in experiment [5] it was 5.55.
As to `O=C1c2cccc(O)c2C(=O)C1(O)O`, the pKi in experiment [3] is less than 4.00; in experiment [5], 4.77.
Take `Cc1cccc2c1C(=O)C(O)(O)C2=O`: the pKi was less than 4.00 in experiment [3] and 4.29 in experiment [5].
`O=C1c2cccc(F)c2C(=O)C1(O)O`: the pKi is less than 4.00 in experiment [3] and 4.35 in experiment [5].
On to `CC(C)Oc1cccc2c1C(=O)C(O)(O)C2=O`, for which the pKi in experiment [3] was less than 4.00; in experiment [5], 5.87.
For `COc1ccc2c(c1)C(=O)C(O)(O)C2=O`, the pKi in experiment [3] was 4.13; in experiment [5], 4.87.
Take `COc1ccc(OC)c2c1C(=O)C(O)(O)C2=O`: the pKi in experiment [3] was less than 4.00; in experiment [5], 4.17.
For `O=C1c2ccc(F)cc2C(=O)C1(O)O`, the negative logarithm of the Ki (pKi) in experiment [3] is less than 4.00; in experiment [5], 4.41.
Regarding `O=C1c2ccc(O)cc2C(=O)C1(O)O`, the pKi in experiment [3] is less than 4.00; in experiment [5], 4.56.
For `COc1ccc(C(C)C)c2c1C(=O)C(O)(O)C2=O`, the negative-log Ki (pKi) in experiment [3] was less than 4.00; in experiment [5], 4.27.
With `O=C1c2c(Br)c(Br)c(Br)c(Br)c2C(=O)C1(O)O`, the negative-log Ki (pKi) in experiment [3] is 4.40; in experiment [5], 4.33.
For `COc1cccc2c1C(=O)C(O)(O)C2=O`, the pKi in experiment [3] is less than 4.00; in experiment [5], 4.47.
